# Data as given in ChEMBL document CHEMBL3112450, “Synthesis and in vitro antitumor evaluation of primary amine substituted quinazoline linked benzimidazole” (Bioorg Med Chem Lett, 2014).
# What was measured:
# Format in all cases: functional
# [1] = system: NCI-H23; experiment: Cytotoxicity against human NCI-H23 cells assessed as cell growth at 10^-4 M after 48 hrs by SRB assay; conditions: NCI-H23, 48 h, read-out: Activity
# [2] = system: HCC 2998; experiment: Cytotoxicity against human HCC2998 cells after 48 hrs by SRB assay; conditions: HCC 2998, 48 h
# [3] = system: SK-OV-3; experiment: Cytotoxicity against human SKOV3 cells assessed as cell growth at 10^-7 M after 48 hrs by SRB assay; conditions: SK-OV-3, 48 h, read-out: Activity
# [4] = Cytotoxicity against human NCI-ADR-RES cells assessed as cell growth at 10^-6 M after 48 hrs by SRB assay; conditions: read-out: Activity
# [5] = system: HCT-116; experiment: Cytotoxicity against human HCT116 cells assessed as cell growth at 10^-6 M after 48 hrs by SRB assay; conditions: HCT-116, 48 h, read-out: Activity
# [6] = system: KM12; experiment: Cytotoxicity against human KM12 cells assessed as cell growth at 10^-6 M after 48 hrs by SRB assay; conditions: KM12, 48 h, read-out: Activity
# [7] = system: IGROV-1; experiment: Cytotoxicity against human IGROV1 cells assessed as cell growth at 10^-4 M after 48 hrs by SRB assay; conditions: IGROV-1, 48 h, read-out: Activity
# [8] = system: SN12C; experiment: Cytotoxicity against human SN12C cells after 48 hrs by SRB assay
# [9] = system: IGROV-1; experiment: Cytotoxicity against human IGROV1 cells after 48 hrs by SRB assay; conditions: IGROV-1, 48 h
# [10] = system: NCI-H226; experiment: Cytotoxicity against human NCI-H226 cells after 48 hrs by SRB assay; conditions: NCI-H226, 48 h
# [11] = system: PC-3; experiment: Cytotoxicity against human PC3 cells after 48 hrs by SRB assay; conditions: PC-3, 48 h
# [12] = system: SF-268; experiment: Cytotoxicity against human SF268 cells assessed as cell growth at 10^-8 M after 48 hrs by SRB assay; conditions: SF-268, 48 h, read-out: Activity
# [13] = Cytotoxicity against human Hs578T cells assessed as cell growth at 10^-7 M after 48 hrs by SRB assay; conditions: Hs-578T, read-out: Activity
# [14] = system: MCF7; experiment: Cytotoxicity against human MCF7 cells assessed as cell growth at 10^-6 M after 48 hrs by SRB assay; conditions: MCF7, 48 h, read-out: Activity
# [15] = system: HOP-92; experiment: Cytotoxicity against human HOP92 cells assessed as cell growth at 10^-6 M after 48 hrs by SRB assay; conditions: HOP-92, 48 h, read-out: Activity
# [16] = system: TK-10; experiment: Cytotoxicity against human TK10 cells assessed as cell growth at 10^-4 M after 48 hrs by SRB assay; conditions: TK-10, 48 h, read-out: Activity
# [17] = system: TK-10; experiment: Cytotoxicity against human TK10 cells after 48 hrs by SRB assay; conditions: TK-10, 48 h
# [18] = system: PC-3; experiment: Cytotoxicity against human PC3 cells assessed as cell growth at 10^-4 M after 48 hrs by SRB assay; conditions: PC-3, 48 h, read-out: Activity
# [19] = system: HCT-15; experiment: Cytotoxicity against human HCT15 cells assessed as cell growth at 10^-4 M after 48 hrs by SRB assay; conditions: HCT-15, 48 h, read-out: Activity
# [20] = system: HCT-15; experiment: Cytotoxicity against human HCT15 cells assessed as cell growth at 10^-7 M after 48 hrs by SRB assay; conditions: HCT-15, 48 h, read-out: Activity
# [21] = system: HCC 2998; experiment: Cytotoxicity against human HCC2998 cells assessed as cell growth at 10^-6 M after 48 hrs by SRB assay; conditions: HCC 2998, 48 h, read-out: Activity
# [22] = system: CAKI-1; experiment: Cytotoxicity against human Caki1 cells assessed as cell growth at 10^-7 M after 48 hrs by SRB assay; conditions: CAKI-1, 48 h, read-out: Activity
# [23] = system: IGROV-1; experiment: Cytotoxicity against human IGROV1 cells assessed as cell growth at 10^-8 M after 48 hrs by SRB assay; conditions: IGROV-1, 48 h, read-out: Activity
# [24] = system: SF-295; experiment: Cytotoxicity against human SF295 cells after 48 hrs by SRB assay; conditions: SF-295, 48 h
# [25] = system: HT-29; experiment: Cytotoxicity against human HT-29 cells after 48 hrs by SRB assay; conditions: HT-29, 48 h
# [26] = system: KM12; experiment: Cytotoxicity against human KM12 cells assessed as cell growth at 10^-7 M after 48 hrs by SRB assay; conditions: KM12, 48 h, read-out: Activity
# [27] = system: SNB-19; experiment: Cytotoxicity against human SNB19 cells assessed as cell growth at 10^-8 M after 48 hrs by SRB assay; conditions: SNB-19, 48 h, read-out: Activity
# [28] = system: LOX IMVI; experiment: Cytotoxicity against human LOXIMVI cells assessed as cell growth at 10^-7 M after 48 hrs by SRB assay; conditions: read-out: Activity
# [29] = system: OVCAR-3; experiment: Cytotoxicity against human OVCAR3 cells assessed as cell growth at 10^-7 M after 48 hrs by SRB assay; conditions: OVCAR-3, 48 h, read-out: Activity
# [30] = system: UACC-62; experiment: Cytotoxicity against human UACC62 cells assessed as cell growth at 10^-8 M after 48 hrs by SRB assay; conditions: UACC-62, 48 h, read-out: Activity
# [31] = system: NCI-H460; experiment: Cytotoxicity against human NCI-H460 cells after 48 hrs by SRB assay; conditions: NCI-H460, 48 h
# [32] = system: SW-620; experiment: Cytotoxicity against human SW620 cells assessed as cell growth at 10^-6 M after 48 hrs by SRB assay; conditions: SW-620, 48 h, read-out: Activity
# [33] = system: SF-539; experiment: Cytotoxicity against human SF539 cells assessed as cell growth at 10^-8 M after 48 hrs by SRB assay; conditions: SF-539, 48 h, read-out: Activity
# [34] = system: ACHN; experiment: Cytotoxicity against human ACHN cells assessed as cell growth at 10^-8 M after 48 hrs by SRB assay; conditions: read-out: Activity
# [35] = system: MDA-MB-468; experiment: Cytotoxicity against human MDA-MB-468 cells after 48 hrs by SRB assay; conditions: MDA-MB-468, 48 h
# [36] = system: A498; experiment: Cytotoxicity against human A498 cells assessed as growth inhibition at 10 uM after 48 hrs by SRB assay; conditions: A498, 48 h, read-out: GI
# [37] = Cytotoxicity against human OVCAR5 cells assessed as cell growth at 10^-6 M after 48 hrs by SRB assay; conditions: OVCAR-5, 48 h, read-out: Activity
# [38] = system: HCT-116; experiment: Cytotoxicity against human HCT116 cells after 48 hrs by SRB assay; conditions: HCT-116, 48 h
# [39] = system: 786-0; experiment: Cytotoxicity against human 786-0 cells after 48 hrs by SRB assay; conditions: 786-0, 48 h
# [40] = read-out: LC50 (the source's name)
structure (smiles),measurement,setting,value
C=CCn1c(C)nc2ccc(Nc3nc(Nc4ccc(F)cc4)nc4ccccc34)cc21,growth at 100 µM,[1],-39%
same,GI50,[2],8.87 µM
same,LC50 (50% lethal concentration),[2],58.2 µM
same,TGI,[2],23.5 µM
same,growth at 0.1 µM,[3],112%
same,growth at 1 µM,[4],96%
same,growth at 1 µM,[5],88%
same,growth at 1 µM,[6],94%
same,growth at 100 µM,[7],-51%
same,GI50,[8],2.78 µM
same,LC50,[8],> 100 µM
same,TGI,[8],15.1 µM
same,GI50,[9],6.09 µM
same,LC50,[9],98.7 µM
same,TGI,[9],27.2 µM
same,GI50,[10],1.78 µM
same,TGI,[10],3.85 µM
same,GI50,[11],3.14 µM
same,TGI,[11],14.7 µM
same,CC50,[11]; [40],49.7 µM
same,growth at 0.01 µM,[12],88%
same,growth at 0.1 µM,[13],99%
same,growth at 1 µM,[14],73%
same,growth at 1 µM,[15],41%
same,growth at 100 µM,[16],-63%
same,GI50,[17],6.83 µM
same,LC50,[17],75.5 µM
same,TGI,[17],24.6 µM
same,growth at 100 µM,[18],-79%
same,growth at 100 µM,[19],-38%
same,growth at 0.1 µM,[20],101%
same,growth at 1 µM,[21],98%
same,growth at 0.1 µM,[22],102%
same,growth at 0.01 µM,[23],95%
same,GI50,[24],6.08 µM
same,LC50,[24],51 µM
same,TGI,[24],20.3 µM
same,GI50,[25],3 µM
same,LC50 (concentration killing 50% of cells),[25],> 100 µM
same,TGI,[25],13.3 µM
same,growth at 0.1 µM,[26],94%
same,growth at 0.01 µM,[27],95%
same,growth at 0.1 µM,[28],98%
same,growth at 0.1 µM,[29],98%
same,growth at 0.01 µM,[30],99%
same,GI50,[31],3.11 µM
same,LC50 (concentration killing 50% of cells),[31],83.9 µM
same,TGI,[31],14.5 µM
same,growth at 1 µM,[32],89%
same,growth at 0.01 µM,[33],99%
same,growth at 0.01 µM,[34],98%
same,GI50,[35],1.23 µM
same,TGI,[35],2.6 µM
same,inhibition of growth at 10 µM,[36],40%
same,growth at 1 µM,[37],92%
same,GI50,[38],2.41 µM
same,LC50 (concentration killing 50% of cells),[38],39.1 µM
same,TGI,[38],7.67 µM
same,GI50,[39],7.44 µM
same,TGI,[39],23.8 µM
same,CC50,[39]; [40],65.1 µM
